The text below walks through data of patent US6208893A, “Electroporation apparatus with connective electrode template” (Genetronics, Inc., priority 1999, dated 2001).

Read-outs that look alike come from different tables or passages of the source.

The subject of series [1] is PC-3 cells. Briefly: XTT cell proliferation assay, cytotoxicity on PC-3 cells with and without electroporation. Conditions: for cell susceptibility with electroporation / cytotoxic enhancement, rank order: combined with electroporation; for cytotoxicity enhancement ratio: IC50 no electroporation vs with electroporation. As for the experimental part:
PC-3 cells (ATCC CRL-1435, a prostate cancer cell line) were grown in RPMI-1640 supplemented with 15% fetal calf serum (FCS) and 1% L-glutamine in 5% CO2 at 37° C. Cells in the exponential phase of growth were harvested by trypsinization and their viability was determined by trypan blue exclusion. Cell were suspended in culture medium at 2×10^5 cells/ml and seeded in the wells of a 96-well plate at a final concentration of 4×10^4 cells per well. Cells were pulsed using appropriate needle array electrodes connected to a square wave pulse generator. The needle array was inserted in the well of the 96 well microplate and pulsed using the following parameters:
A cell survival curve was produced for the different electric fields.
Methods, 142:2, 257-265, 1991). The XTT assay is based on a spectrophotometric assay of the metabolic conversion of tetrazolium salts to formazan; living cells convert XTT to formazan, which can be measured spectrophotometrically. Results were expresses as a comparison of the lC50 (concentration of drug inhibiting 50% of the cells) of each agent in the presence and absence of clectroporation, and are presented in Table 1.

Another series relates to tumor cell. Conditions: cited from earlier work.
A further series relates to prostate. Kind of series: Intraprostatic injection of Bleomycin with electroporation, tolerability, ECG and histology in dog. Type of series: in vivo, male beagle dog. Here is the method:
In order to evaluate the technical feasibility of intraprostatic injection of Bleomycin, the following study was performed. A male beagle dog with a prostate size of >2 cm in diameter was anesthetized, A midline laparotomy was performed, and the bladder and gut reflected to visualize the prostate gland. Under direct visual guidance, Bleomycin was injected into each of six sextants (base, mid, and apex of both the left and right sides) of the prostate. Four electroporation needles were then inserted transperineally under visual guidance to administer the electroporation cycles. […] The ECG was recorded during each of the electroporation pulse sequences. The first two sequences were conducted with the needles inserted into the prostate, through the perineum. Four additional sequences were recorded with the needles inserted directly into the muscles of the left hindlimb. Each of the pulse sequences produced stimulation artifacts on the recording of the ECG.
The prostate was then excised and processed for histological evaluation.

The conditions of series [2]: partition coefficient between octanol and water; cited from earlier work.
The test system of series [3] is PC-3 cells. Briefly: PC-3 tumors in nude mice, intratumoral bleomycin with or without electroporation. Format: in vivo, nude mice; human prostate tumor (PC-3) cells. To be noted: for death: deaths due to infighting. Here is the method: In order to examine the effect of electroporation on the effectiveness of chemotherapeutic agents in vivo, a nude mouse model was utilized. For these experiments, 0.1 ml of a matrigel solution (a serum-free solution consisting of one part matrigel diluted in four parts RPMI-1640) containing 5×10^6 PC-3 cells was implanted on the flank of nude mice. The tumors were allowed to grow until a tumor volume of […]. The mice were weighed and randomly divided into six groups as follows:
Group 1: no chemotherapeutic agent, no electroporation
Group 2: 0.5 unit Bleomycin, no electroporation
Group 3: 0.5 units Bleomycin, 4 needle array, 0.65 cm, 942V, 4×100 μs pulses
Group 4: 0.5 units Bleomycin, 6 needle array, 1.00 cm, 1130 V, 6×100 μs pulses
Group 5: 0.5 units Bleomycin, 6 needle array, 0.50 cm, 559 V, 6×100 μs pulses
Group 6: 0.5 units Bleomycin, 4 needle array, 0.87 cm, 1500V, 4×100 μs pulses
In those animals which received Bleomycin, the chemotherapeutic agent (0.5 unit) was dissolved in 0.01 ml saline and injected intratumorally by "fanning." After 10±1 minutes, a Genetronics Medpulser™ device was used to pulse the tumors with a set of either 6 or 4-needle array electrodes. All treatments were given as a single set of pulses.
The animals were monitored daily for morality or any sign of disease for 67 days (see FIG. 24, where D=drug treatment (Bleomycin) and e=electroporation). Tumor size was measured and tumor volume calculated using the formula: […]
wherein a, b, and c are the length, width, and depth of the tumor in mm.
Following the monitoring period, the tumors were harvested and sections were prepared for histological analyses. Animals were classified as having progressive disease (appearance of new lesions not previously identified or having an estimated increase of 25% or more in existent lesion size), a complete response (complete disappearance of all known disease, a partial response (wherein the tumor size decrease 50% or more). Deaths were noted to be due to infighting of mice in the same cage.

The mark [4] stands for this setting: during electroporation pulse sequences.

Turning to `N.N.[Cl][Pt][Cl]` [Cisplatin], in the series with PC-3 cells [1], the “cell susceptibility with electroporation” value is reported as “electroporation enhances cell susceptibility”. The IC50 in the series on PC-3 cells [1] (read-out: IC50 no electroporation, no electroporation, 20 hours after treatment) turned out to be 50 µM; in the series on PC-3 cells [1] (read-out: IC50 with electroporation, with electroporation, 6 pulses, 99 μs, 400-600 V, 0.5 cm needle array, 20 hours after treatment), 10 µM.

For the molecule `CO[C@@]12[C@H](COC(N)=O)C3=C(C(=O)C(C)=C(N)C3=O)N1C[C@@H]1N[C@@H]12` [Mitomycin C], the IC50 in the series with PC-3 cells [1] (Homo sapiens, PC-3, 20 h, read-out: IC50 no electroporation) worked out at 80 µM. Besides, the IC50 with PC-3 cells [1] (Homo sapiens, PC-3, 20 h, read-out: IC50 with electroporation) was determined as 60 µM. Besides, in the series on PC-3 cells [1], the cytotoxicity enhancement ratio is listed as 1.33; the “cytotoxic enhancement, rank order” value was “followed by Cisplatin and Mitomycin C”.

With Bleomycin, the cytotoxicity enhancement ratio in the series with PC-3 cells [1] was 1000. Besides, the “cell susceptibility with electroporation” value in the series on PC-3 cells [1] was “electroporation enhances cell susceptibility”. The “cytotoxic enhancement, rank order” value with PC-3 cells [1] is listed as “highest cytotoxic enhancement”. The “diffusion into a tumor cell” value in the series with tumor cell was “diffuse very slowly into a tumor cell”. Also, in the series on tumor cell (without electroporation), the “penetration of the membranes of certain cancer cells” value is on record as “normally cannot penetrate the membranes of certain cancer cells effectively”. Also, the “ECG, electrical rhythm of the heart” value in the series with prostate (setting [4]) is recorded as “no effect on the electrical rhythm of the heart”. Besides, in the series with prostate (setting [4]), the “clinical disturbances of the cardiac rhythm” value is “no clinical disturbances of the cardiac rhythm were observed”. Further, the muscular contractions entry in the series on prostate (during the electroporation pulses) is reported as “muscular contractions were observed”. In the series with prostate (intraprostatic Bleomycin plus electroporation), the “acute local or adverse reactions” value is recorded as “No acute local or adverse reactions”. In the series on prostate (intraprostatic Bleomycin plus electroporation, persisted for the duration of the study), the injection site finding result is “Small hematomas were evident at the injection site”. Further, in the series on prostate (one hour after electroporation), the “gross examination of prostate, perineum and surrounding tissues” value was “no findings except for the hematomas on the prostate surface”. The “necrosis of epithelial cells in the glandular portion of the prostate” value with prostate (one hour after electroporation) is “Necrosis occurred in the epithelial cells”. Also, in the series on prostate (one hour after electroporation), the “necrosis of the supporting stroma” value is “No necro-sis of the supporting stroma was observed”. For the same molecule, the “histological tissue findings in the prostate gland” value in the series on prostate (one hour after electroporation, multifocal in distribution pattern) is “hemorrhage, edema, and necrosis, which were mild in severity”. Besides, the “log P” value in series [2] is “very negative”. The Progressive disease with PC-3 cells [3] (Group 2: 0.5 unit Bleomycin, no electroporation, 6 animals, 67 days) was determined as 100%. In addition, the partial response is given as 14% in the series with PC-3 cells [3] (Group 3: 0.5 units Bleomycin, 4 needle array, 0.65 cm, 942V, 4×100 μs pulses, 1 of 7 animals, 67 days); 14% with PC-3 cells [3] (Group 4: 0.5 units Bleomycin, 6 needle array, 1.00 cm, 1130 V, 6×100 μs pulses, 1 of 7 animals, 67 days); 17% in the series with PC-3 cells [3] (Group 5: 0.5 units Bleomycin, 6 needle array, 0.50 cm, 559 V, 6×100 μs pulses, 1 of 6 animals, 67 days); 12% in the series with PC-3 cells [3] (Group 6: 0.5 units Bleomycin, 4 needle array, 0.87 cm, 1500V, 4×100 μs pulses, 1 of 8 animals, 67 days). Besides, the death is 14% in the series with PC-3 cells [3] (Group 3: 0.5 units Bleomycin, 4 needle array, 0.65 cm, 942V, 4×100 μs pulses, 1 of 7 animals); 14% in the series with PC-3 cells [3] (Group 4: 0.5 units Bleomycin, 6 needle array, 1.00 cm, 1130 V, 6×100 μs pulses, 1 of 7 animals); 25% in the series with PC-3 cells [3] (Group 6: 0.5 units Bleomycin, 4 needle array, 0.87 cm, 1500V, 4×100 μs pulses, 2 of 8 animals). The complete response in the series with PC-3 cells [3] (Group 3: 0.5 units Bleomycin, 4 needle array, 0.65 cm, 942V, 4×100 μs pulses, 5 of 7 animals, 67 days) worked out at 52%; with PC-3 cells [3] (Group 4: 0.5 units Bleomycin, 6 needle array, 1.00 cm, 1130 V, 6×100 μs pulses, 5 of 7 animals, 67 days) it was 52%; with PC-3 cells [3] (Group 5: 0.5 units Bleomycin, 6 needle array, 0.50 cm, 559 V, 6×100 μs pulses, 5 of 6 animals, 67 days), 83%; in the series with PC-3 cells [3] (Group 6: 0.5 units Bleomycin, 4 needle array, 0.87 cm, 1500V, 4×100 μs pulses, 5 of 8 animals, 67 days) it was 63%.
